Active and inactive are the calls of the source. The rule behind the calls is not given here.
Legend:
[1] = target: Serine/threonine-protein phosphatase 2A catalytic subunit alpha isoform (Homo sapiens) (UniProt P67775); assay: Inhibition of PP2A in human LY7 cells assessed as increase in CK1epsilon autophosphorylation by Western blot analysis; type: cell-based; conditions: time lower […], time upper 30.0 min
[2] = target: Myc proto-oncogene protein (Homo sapiens) (UniProt P01106); assay: Inhibition of c-Myc in human LY7 cells assessed as reduction in E2F1 expression at 5 nM incubated for 24 hrs by Western blot analysis; type: cell-based
Chain of Myc proto-oncogene protein (Homo sapiens) (P01106 whole entry, canonical isoform): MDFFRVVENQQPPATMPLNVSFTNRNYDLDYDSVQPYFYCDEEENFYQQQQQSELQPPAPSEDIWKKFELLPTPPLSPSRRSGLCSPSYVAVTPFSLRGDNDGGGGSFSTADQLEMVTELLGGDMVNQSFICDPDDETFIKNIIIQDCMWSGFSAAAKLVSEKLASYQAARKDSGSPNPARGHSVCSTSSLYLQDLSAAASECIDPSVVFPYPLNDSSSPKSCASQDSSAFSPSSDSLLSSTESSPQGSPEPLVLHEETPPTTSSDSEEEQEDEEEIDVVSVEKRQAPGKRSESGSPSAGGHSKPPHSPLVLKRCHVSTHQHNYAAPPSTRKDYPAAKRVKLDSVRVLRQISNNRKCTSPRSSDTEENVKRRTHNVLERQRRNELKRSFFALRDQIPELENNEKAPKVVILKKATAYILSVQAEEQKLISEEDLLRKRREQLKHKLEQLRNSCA

[3] = target: Myc proto-oncogene protein (Homo sapiens) (UniProt P01106); assay: Inhibition of c-Myc in human LY10 cells assessed as reduction in E2F1 expression at 2 nM incubated for 24 hrs by Western blot analysis; type: cell-based
[4] = target: Myc proto-oncogene protein (Homo sapiens) (UniProt P01106); assay: Inhibition of c-Myc in human LY10 cells assessed as reduction in eIF4B expression at 2 nM incubated for 24 hrs by Western blot analysis; type: cell-based
[5] = target: Myc proto-oncogene protein (Homo sapiens) (UniProt P01106); assay: Inhibition of c-Myc in human LY7 cells assessed as reduction in eIF4B expression at 5 nM incubated for 24 hrs by Western blot analysis; type: cell-based
[6] = target: T1, Casein kinase I isoform epsilon (Homo sapiens, UniProt P49674); assay: Inhibition of recombinant human full-length N-terminal GST-tagged CK1epsilon expressed in baculovirus infected Sf9 insect cells at 50 uM using casein as substrate measured after 60 mins by ADP-glo kinase assay relative to control
Target sequence in this assay (P49674 whole entry, looked up, canonical isoform): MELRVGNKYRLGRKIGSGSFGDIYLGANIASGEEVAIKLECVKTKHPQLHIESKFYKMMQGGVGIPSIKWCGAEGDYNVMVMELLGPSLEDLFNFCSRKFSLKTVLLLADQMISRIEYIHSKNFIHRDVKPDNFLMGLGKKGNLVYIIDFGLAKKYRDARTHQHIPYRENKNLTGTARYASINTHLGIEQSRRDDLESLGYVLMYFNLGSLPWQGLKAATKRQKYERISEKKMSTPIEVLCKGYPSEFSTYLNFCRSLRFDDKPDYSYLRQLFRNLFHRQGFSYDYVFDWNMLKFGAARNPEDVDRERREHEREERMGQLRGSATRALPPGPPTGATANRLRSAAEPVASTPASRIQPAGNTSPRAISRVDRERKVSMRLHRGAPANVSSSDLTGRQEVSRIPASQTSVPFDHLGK

[7] = target: T1, Casein kinase I isoform epsilon; assay: Inhibition of recombinant human full-length N-terminal GST-tagged CK1epsilon expressed in baculovirus infected Sf9 insect cells using casein as substrate measured after 60 mins by ADP-glo kinase assay
Target sequence in this assay (P49674 whole entry, canonical isoform): as the sequence (P49674 whole entry, looked up, canonical isoform) above

[8] = target: T1, Casein kinase I isoform epsilon; assay: Inhibition of CK1epsilon in human LY7 cells assessed as reduction in CK1epsilon autophosphorylation at 10 to 25 uM preincubated for 1 hr followed by addition of PP2A inhibitor calyculin A and measured after 15 to 60 mins by Western blot analysis; type: cell-based; conditions: dose 10-25 µM, time lower 75.0 min, time upper […]
Target sequence in this assay (P49674 whole entry, looked up, canonical isoform): as above

[9] = target: T1, Casein kinase I isoform epsilon; assay: Inhibition of CK1epsilon in human OCILY7 cells transfected with c-myc-5'-UTR-luciferase construct assessed as reduction in c-myc translation at 15 uM incubated for 24 hrs by luciferase reporter gene assay; type: cell-based
Target sequence in this assay (P49674 whole entry, looked up, canonical isoform): as above

[10] = target: T1, Casein kinase I isoform epsilon; assay: Inhibition of CK1epsilon in human LY7 cells assessed as reduction in CK1epsilon autophosphorylation at 1 uM preincubated for 1 hr followed by addition of PP2A inhibitor calyculin A and measured after 15 to 60 mins by Western blot analysis; type: cell-based; conditions: time lower 75.0 min, time upper […]
Target sequence in this assay (P49674 whole entry, looked up, canonical isoform): as above

[11] = target: T1, Casein kinase I isoform epsilon; assay: Inhibition of CK1epsilon in human LY7 cells assessed as reduction in 4E-BP1 phosphorylation at 25 uM incubated for 24 hrs in presence of […] inhibitor PF4800567 by Western blot analysis; type: cell-based
Target sequence in this assay (P49674 whole entry, looked up, canonical isoform): as above

[12] = target: T1, Casein kinase I isoform epsilon; assay: Inhibition of CK1epsilon in human LY7 cells assessed as reduction in c-Myc expression at 15 to 50 uM measured after 24 hrs by Western blot analysis; type: cell-based; conditions: dose 15-50 µM
Target sequence in this assay (P49674 whole entry, looked up, canonical isoform): as above

[13] = target: T1, Casein kinase I isoform epsilon; assay: Inhibition of CK1epsilon in human LY7 cells assessed as reduction in c-Myc expression at 25 uM incubated for 24 hrs in presence of […] inhibitor PF4800567 by Western blot analysis; type: cell-based

Chain of Serine/threonine-protein phosphatase 2A catalytic subunit alpha isoform (Homo sapiens) (P67775 whole entry, canonical isoform): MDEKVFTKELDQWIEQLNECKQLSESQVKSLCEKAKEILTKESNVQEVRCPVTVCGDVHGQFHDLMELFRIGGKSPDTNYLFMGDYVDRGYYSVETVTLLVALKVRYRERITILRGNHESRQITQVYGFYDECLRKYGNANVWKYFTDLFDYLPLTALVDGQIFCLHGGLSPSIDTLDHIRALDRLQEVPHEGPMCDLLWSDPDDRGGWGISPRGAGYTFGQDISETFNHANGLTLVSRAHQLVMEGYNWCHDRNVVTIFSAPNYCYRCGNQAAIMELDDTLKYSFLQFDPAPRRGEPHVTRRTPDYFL

inhibition [2] | inhibition [3] | inhibition [4] | inhibition [5] | EC50 [7] [µM] | Compound | other results
– | – | – | – | 81.2 | CC[C@@H](c1nc2cccc(F)c2c(=O)n1-c1ccccc1)n1nc(-c2ccc(OC(C)C)c(F)c2)c2c(N)ncnc21 | inhibition [6]: < 50%
– | – | – | – | 9.36 | CC(C)Oc1ccc(-c2nn([C@@H](C)c3nc4cccc(F)c4c(=O)n3-c3ccccc3)c3ncnc(N)c23)cc1F | inhibition [8]: Active

Further lines, the molecule ahead of its results:

Compound | inhibition [2] | inhibition [3] | inhibition [4] | inhibition [5] | EC50 [7] [µM] | other results
COC[C@@H]([C@H](O)[C@H](O)C(=O)NCC[C@H](C)c1nc(/C=C/C[C@@H]2O[C@]3(C[C@@H](O)[C@@H]2C)O[C@H]([C@H](C[C@H](O)[C@H](C)[C@H](O)[C@H](C)/C=C(C)/C(C)=C/C=C/C(C)=C\C#N)OC)[C@H](OP(=O)(O)O)C3(C)C)co1)N(C)C | – | – | – | – | – | inhibition [1]: Dose-Dependent Effect
CC(C)C[C@H](NC(=O)[C@H](Cc1ccccc1)NC(=O)c1cnccn1)B(O)O | inactive | inactive | inactive | inactive | – | –
CC(C)C[C@H](NC(=O)[C@H](CCc1ccccc1)NC(=O)CN1CCOCC1)C(=O)N[C@@H](Cc1ccccc1)C(=O)N[C@@H](CC(C)C)C(=O)[C@@]1(C)CO1 | inactive | inactive | inactive | inactive | – | –
Nc1ncnc2c1c(COc1cccc(Cl)c1)nn2C1CCOCC1 | – | – | – | – | 0.0074 | inhibition [9]: inactive; inhibition [10]: Active; inhibition [11]: Active; inhibition [12]: Active; inhibition [13]: Active

— ChEMBL document CHEMBL5715954, “Silencing c-Myc translation as a therapeutic strategy through targeting PI3Kδ and CK1ε in hematological malignancies” (Blood, 2017)
